Measured values from patent US20070275911A1, “Targeted Drug-Formaldehyde Conjugates and Methods of Making and Using the Same” (priority 2003, published 2007).
Values joined by “and” are separate entries in the source; they are usually repeats but may differ in a detail not shown here. Equal values may be shown once. Read-outs that look alike come from different tables or passages of the source.

How the values were obtained:
AEBS = biological target: T1, AEBS (Homo sapiens, UniProt Q15125+Q9UBM7); assay: AEBS binding, competition with 3H-tamoxifen in MCF-7 cell lysate; conditions: 50 nM competitor
T1 construct: MCF-7 cells were utilized as the AEBS source; endogenous in cells; host or cells: MCF-7 cells
T1 sequence (Q15125 2-230): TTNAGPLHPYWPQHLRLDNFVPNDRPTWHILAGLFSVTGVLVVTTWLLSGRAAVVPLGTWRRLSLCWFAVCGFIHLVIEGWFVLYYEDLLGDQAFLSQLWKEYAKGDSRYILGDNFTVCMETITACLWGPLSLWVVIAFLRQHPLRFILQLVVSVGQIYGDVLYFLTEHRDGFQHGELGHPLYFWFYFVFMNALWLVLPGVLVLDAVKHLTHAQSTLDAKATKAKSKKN
T1 sequence (Q9UBM7 whole entry): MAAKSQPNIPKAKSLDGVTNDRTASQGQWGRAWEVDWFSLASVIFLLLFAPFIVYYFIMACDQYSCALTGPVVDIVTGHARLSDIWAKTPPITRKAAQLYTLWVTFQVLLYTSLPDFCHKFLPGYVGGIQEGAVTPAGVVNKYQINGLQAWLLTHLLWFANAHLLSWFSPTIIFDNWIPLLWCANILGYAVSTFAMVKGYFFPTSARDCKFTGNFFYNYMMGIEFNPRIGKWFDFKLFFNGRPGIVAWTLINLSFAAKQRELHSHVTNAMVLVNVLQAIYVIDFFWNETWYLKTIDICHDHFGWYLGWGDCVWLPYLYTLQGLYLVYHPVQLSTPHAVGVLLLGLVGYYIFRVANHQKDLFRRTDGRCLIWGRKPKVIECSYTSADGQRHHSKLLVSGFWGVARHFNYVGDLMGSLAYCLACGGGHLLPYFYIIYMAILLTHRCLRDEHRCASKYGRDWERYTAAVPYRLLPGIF

[1] = Hydrolysis and stability of DOX-TEG-TAM; assay type: physicochemical
Procedure: Results: Hydrolysis and stability. A standard solution of DOX-TEG-TAM (11c) in dimethylsulfoxide (DMSO) containing 1% v/v acetic acid (AcOH) was diluted 1:100 in two different buffers: lysis buffer (pH 7.4, 10 mM Tris, 1.5 mM EDTA, 10 mM Na2MoO4) used for binding experiments or TE buffer (pH 7.6, 10 MM Tris, 1 mM EDTA). Samples incubated at 37° C. and 4° C. were monitored by HPLC to detect the loss of intact targeted drug and the formation of doxorubicin. The hydrolysis data was fit using first-order reaction kinetics to provide first-order rate constants; the hydrolysis half-life was then calculated using t1/2=ln2/k.
The DOX-TEG-TAM was diluted 1:100 in either pH 7.6 TE buffer (10 mM tris, 1 mM EDTA buffer) or pH 7.4 lysis buffer (10% v/v glycerol, 10 mM Tris, 1.5 mM EDTA, 10 mM Na2MoO4). A sample of each buffer was kept at 37° C. and 4° C. and monitored by HPLC using Method #2 (described above) to track the loss of DOX-TEG-TAM and the subsequent formation of doxorubicin. The area-under-the-curve (AUC) was used to calculate the percentage of intact material versus time. The hydrolysis data were fit to first-order kinetics using Regression (Blackwell Scientific Publishing, London) software. The reaction rate constants were 0.012±0.0007 min^−1 (pH 7.6) and 0.0092±0.0003 min^−1 (pH 7.4) at 37° C.; 0.0058±0.0005 h^−1 (pH 7.6) and 0.0038±0.0003 h^−1 ([…]) at 4° C. The half-life for hydrolysis was then calculated from the rate constants using t1/2=ln2/k.

[2] = tested on: PC-3 prostate cancer cells; assay: Cytotoxicity, crystal violet colony assay (Example 1); assay type: cell-based; conditions: for IC50: PC-3, 4 h treatment, read-out: IC50 cancer cell growth inhibition
MCF-7/ADR = assay: as above; assay type: cell-based, human; conditions: for IC50: 4 h treatment, read-out: IC50 cancer cell growth inhibition
Procedure: (§1) This cell suspension was dispensed in 200 μL aliquots into 96-well tissue culture plates. Plates were then incubated for 24 h at 37° C. in a humidified atmosphere of 5% CO2 and 95% air. The medium was replaced with 180 μL of growth medium prior to addition of the prodrug. Doxsaliform was dissolved in DMSO containing 1% glacial acetic acid at concentrations ranging from 1 mM to 10 mM and sterile-filtered through a 0.45 μm nylon centrifuge filter. The concentration was then corrected by measuring the solution absorbance at 480 nm (ε=11 500 L/(mol·cm). Serial dilutions (1:10) were made in sterile DMSO to yield seven solutions of decreasing drug concentration at 100× the respective working concentrations. The resulting solutions were individually diluted 1:10 in RPMI 1640; 20 μL of the resulting 10× solution was immediately added to the appropriate lane of cells. Additionally, two lanes were treated with 20 μL growth medium containing 10% sterile DMSO and one lane was treated with 200 μL of 1.5 M Tris buffer. The cells were incubated at 37° C. for 4 h, at which time the drug solutions were replaced with 200 μL of fresh growth medium. […] The extent of colony formation was determined using a crystal violet staining assay.
(§2) The biological activities of several of the N-Mannich base derivatives were determined by their in vitro cytotoxicity against MCF-7 and MCF-7/ADR human breast cancer derived cell lines. While MCF-7 cells are sensitive to doxorubicin, the MCF-7/ADR cell line is an MCF-7 derivative which is characterized by its marked resistance to doxorubicin.

MCF-7 = assay: as above; assay type: cell-based, human; conditions: for IC50: MCF-7, 4 h treatment, read-out: IC50 cancer cell growth inhibition
Procedure: as §1, §2

[3] = cell line not stated; cited from earlier work
[4] = Hydrolysis of anthracycline-formaldehyde N-Mannich bases followed by HPLC
Procedure: The area under the curve for the N-Mannich base was determined at each time point and was used to establish the kinetics of decomposition, using regression software. Hydrolysis of AOM-doxsaliform was carried out in pH 8.0 100 mM sodium phosphate buffer at 37° C. AOM-doxsaliform was dissolved in 48.0 μL DMSO and this solution was diluted into phosphate buffer to give 4.8 mL of an […] solution containing 1% DMSO. To this solution was added 6 μL of pig liver esterase (0.8 units/μL; Sigma; Milwaukee, Wis.) to achieve a final concentration of 1.0 units/mL. […] Brief centrifugation served to pellet the insoluble fraction. The drug solution was then transferred to a round bottom flask and concentrated by brief rotary-evaporation at 20° C. Reverse phase HPLC was used to analyze the extent of hydrolysis.
Hydrolysis of the N-Mannich bases, prepared from either doxorubicin or daunorubicin and the respective amides, at 37° C. in pH 7.4 triethylammonium acetate (TEAA) buffer (20 mM) containing 10-30% MeOH was monitored by reverse phase HPLC. […] Identification of a less robust construct that could be used to rapidly deliver the active Schiff base metabolite of doxorubicin to a growing tumor was undertaken.

| Structure (SMILES) | AEBS binding affinity relative to the targeting group (AEBS; 0.05 nM 3H-tamoxifen) [%] | AEBS binding affinity relative to the targeting group (AEBS; 0.5 nM 3H-tamoxifen) [%] | AEBS binding affinity relative to the targeting group (AEBS; 5 nM 3H-tamoxifen) [%] | reaction rate constant ([1]; pH 7.4, 37° C.) [min⁻¹] | reaction rate constant ([1]; pH 7.5, 4° C.) [min⁻¹] | reaction rate constant ([1]; pH 7.6, 4° C.) [min⁻¹] | reaction rate constant ([1]; pH 7.6, 37° C.) [min⁻¹] | IC50 [2] [nM] | IC50 (MCF-7/ADR; Homo sapiens, NCI/ADR-RES) [nM] | IC50 (MCF-7; Homo sapiens, MCF7) [nM] | DOX/doxsaliform ([2]; PC-3, fold increase in cytotoxicity, 4 h drug treatment) | IC50 [3] | IC50 (MCF-7/ADR) [nM] | DOX/doxsaliform (MCF-7/ADR; fold increase in cytotoxicity, 4 h drug treatment) | IC50 (MCF-7) [nM] | DOX/doxsaliform (MCF-7; MCF-7, fold increase in cytotoxicity, 4 h drug treatment) | estimated pKa of the amino moiety [4] | storage stability of lyopholyzed salts ([4]; −20° C.) | decomposition of the free base on storage ([4]; −20° C., after 3 weeks) [%] |
| --- | --- | --- | --- | --- | --- | --- | --- | --- | --- | --- | --- | --- | --- | --- | --- | --- | --- | --- | --- |
| CC/C(=C(/c1ccc(O)cc1)c1ccc(OCCN(C)CCOCCOCCO/N=C/c2ccc(O)c(C(=O)NCN[C@H]3C[C@H](O[C@H]4C[C@](O)(C(=O)CO)Cc5c(O)c6c(c(O)c54)C(=O)c4c(OC)cccc4C6=O)O[C@@H](C)[C@H]3O)c2)cc1)c1ccccc1 [11c, E/Z-N-(2-Hydroxy-5-{[2-(2-{2-[(2-{4-[1-(4-hydroxy-phenyl)-2-phenyl-but-1-enyl]-phenoxy}-ethyl)-methyl-amino]-ethoxy}-ethoxy)-ethoxyimino]-methyl}-benzamide)-doxorubicin] | 70 | 72 | 48 | 0.0092 ± 0.0003 | 6.33e-05 ± 5e-06 | 9.67e-05 ± 8.3e-06 | 0.012 ± 0.0007 |  |  |  |  |  |  |  |  |  |  |  |  |
| COc1cccc2c1C(=O)c1c(O)c3c(c(O)c1C2=O)C[C@@](O)(C(=O)CO)C[C@@H]3O[C@H]1C[C@H](N)[C@H](O)[C@H](C)O1 [doxorubicin, reference compound] |  |  |  |  |  |  |  | 300 | 8000 | 300 |  |  |  |  |  |  |  |  |  |
| COc1cccc2c1C(=O)c1c(O)c3c(c(O)c1C2=O)C[C@@](O)(C(=O)CO)C[C@@H]3O[C@H]1C[C@H](NCNC(=O)c2ccccc2O)[C@H](O)[C@H](C)O1 [doxsaliform, N-(2-Hydroxybenzamido-methyl)-doxorubicin] |  |  |  |  |  |  |  | 80 |  |  | 4 | 60 nM and 50 nM | 800 | 10 | 80 | 4 | 3.0-3.5 | stable at −20 °C for periods of several months | ~20 |
